Reference: patent publication US20250034135A1, “ANTI-APOPTOTIC PROTEIN BCL-2 INHIBITOR, PHARMACEUTICAL COMPOSITION AND USES THEREOF” (HANGZHOU HEALZEN THERAPEUTICS CO., LTD., priority 2021, published 2025)
Like-named read-outs stand apart in the source and are kept apart here. Blank lines part the entries; values can stand above or below the compound they belong to.

What was measured:
[1] = biological target: BCL-XL (Homo sapiens (Human), UniProt Q07817); assay: BCL-XL enzyme molecular level activity test (HTRF, binding to BIM peptide); conditions: binding of BCL-XL to BIM peptide, read-out: BCL-XL inhibitory activity (IC50)
BCL-XL, sequence (Q07817 whole entry): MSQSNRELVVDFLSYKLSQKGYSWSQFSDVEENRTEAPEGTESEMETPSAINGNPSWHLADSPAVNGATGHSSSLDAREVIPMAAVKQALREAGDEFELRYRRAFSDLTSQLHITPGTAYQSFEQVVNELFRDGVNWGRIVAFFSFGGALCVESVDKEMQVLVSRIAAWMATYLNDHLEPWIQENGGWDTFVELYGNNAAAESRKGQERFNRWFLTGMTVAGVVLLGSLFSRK
Outline: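 HTRF binding assay: His-tagged recombinant BCL-XL with biotin-BIM peptide and compound (2% DMSO), 1 h. Anti-His and streptavidin-XL665 detection reagents added, 4 h at room temperature. Excitation 320 nm; 665/615 nm ratio reflects binding, with no-protein background and no-compound full-binding controls.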

[2] = Rat absorption test; conditions: Sprague-Dawley, plasma, po, 10 mg/kg
Procedure: (§1) Experimental method: SD rats were used as experimental animals and administered 10 mg/kg by gavage. The blood collection time points for gavage administration were 0, 0.5, 1, 2, 3, 4, 6, 8, and 24 hours. 3 mL of whole blood was collected, and after centrifugation, 1 mL of plasma was taken for LC-MS analysis.

[3] = system: RS4; 11 cells; assay: Tumor proliferation inhibitory activity test (MTS) on RS4; 11; assay type: cell-based; conditions: 3 days incubation
Outline: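 RS4;11 cells were exposed to serially diluted compound (0.2% DMSO control) for 3 days at 37 °C/5% CO2, followed by MTS for 3–4 h. Read-out was OD490−OD690, and inhibition was calculated relative to the DMSO and blank wells.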

[4] = system: human platelets; assay: Platelet viability test (CTG); assay type: cell-based; conditions: CTG after 24 h
Procedure: After 10 mL of platelet-rich plasma was added to 30 mL of ACD-A solution and uniformly mixed, centrifugation was performed at 1200 g, and the supernatant was discarded; 10 mL of ACD-A solution was added, resuspended, uniformly mixed, and centrifuged at 1200 g for 10 min, and the supernatant was discarded. 5 mL of HEPES-Tyrode's buffer containing 1 μM PGE1 and 0.2 U/mL apyrase was added, slightly inverted, and then centrifuged at 800 g for 5 min, and the supernatant was discarded. 10 mL of HEPES-Tyrode's buffer containing 1 μM PGE1 and 0.2 U/mL apyrase was added, resuspended, and centrifuged at 1000 g for 5 min, and the supernatant was discarded. 2 mL of HEPES-Tyrode's buffer containing 1 μM PGE1+10% FBS-resuspended platelets was added, 200 μL was taken into a centrifuge tube and diluted to 2 mL. Then it was diluted to 1, 0.8, 0.6, 0.4, 0.2, 0.1, 0.08, 0.06, 0.04, 0.02, 0.01 times, the volume was complemented to 100 μL, and 50 μL of CTG reagent was added to detect cell viability. The maximum valid dilution with a fluorescence value not exceeding […] was selected for dilution, 90 μL/well was connected to a 96-well cell plate for chemiluminescence detection. A compound was prepared with HEPES-Tyrode's buffer containing 1 μM of PGE1+10% FBS, and added to the cells, which was gently beaten evenly and detected for cell viability by adding 50 μL CTG after 24 h.

[5] = biological target: BCL2 (D103Y) (Homo sapiens (Human), UniProt P10415, D103Y); assay: Molecular level activity test of BCL2 (D103Y) (HTRF, binding to Bim peptide); conditions: read-out: BCL-2 (D103Y) (nM) (inhibitory activity, IC50)
Outline: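 His-tagged recombinant protein mixed with biotinylated BIM peptide and compound (2% DMSO), reacted 1 h. Anti-His and streptavidin-XL665 detection reagents then added and incubated 4 h at room temperature before HTRF read-out of binding inhibition.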

[6] = system: RS4; 11 cells; assay: In vivo anti-tumor efficacy, RS4; 11 subcutaneous transplanted tumor model; conditions: 11 transplanted tumor, NOD/SCID mice, after 8 days
Description: Tumor models were established by subcutaneous inoculation of RS4; 11 cells into NOD/SCID mice. When the tumors grew to about 100 mm^3, the mice were divided into groups and administered as follows: The control group was given a corresponding volume of CMC-Na solution by gavage; […]; the weight and tumor size changes of the mice were weighed twice a week, and after 8 days, the efficacy of the compounds on RS4; 11 mice transplanted tumors was investigated.
The relative tumor proliferation rate T/C %=TRTV/CRTV×100% (TRTV: average RTV of the treatment group; CRTV: average RTV of the negative control group). Based on the results of tumor measurements, the relative tumor volume (RTV) was calculated using the formula RTV=Vt/V0, where V0 was the tumor volume measured during group division (i.e. D0), Vt was the tumor volume at a certain measurement, and TRTV and CRTV used the data of the same day.

[7] = biological target: BCL2 (Homo sapiens (Human), UniProt P10415); assay: Molecular level activity test of anti-apoptotic protein BCL2 (HTRF, binding to Bim peptide); conditions: HTRF, binding of BCL2 to Bim peptide; read-out: BCL2 nM (inhibitory activity, IC50)
Outline: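 HTRF binding of His-tagged recombinant BCL2 to biotin-tagged Bim peptide, compound in 2% DMSO. After 1 h reaction, anti-His and streptavidin-XL665 detection reagents were added and incubated 4 h at room temperature before reading.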

[8] = biological target: BCL2 (G101V) (Homo sapiens (Human), UniProt P10415, G101V); assay: Molecular level activity test of anti-apoptotic protein BCL2 (G101V) (HTRF, binding to Bim peptide); conditions: inhibition of BCL2 (G101V) binding to Bim peptide, read-out: BCL-2 (G101V)
Outline: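 His-tagged recombinant BCL2 (G101V) incubated 1 h with biotin-BIM peptide and compound (2% DMSO), then anti-His and streptavidin-XL665 detection reagents added for 4 h at room temperature. HTRF signal reflects compound effect on BCL2–BIM binding.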

[9] = Canine absorption test; conditions: Beagle dogs, 5 mg/kg by gavage
Procedure: (§2) Experimental method: Beagle dogs were used as experimental animals and administered 5 mg/kg by gavage. The blood collection time points for gavage administration were 0, 0.5, 1, 2, 3, 4, 6, 8, and 24 hours. 3 mL of whole blood was collected, and after centrifugation, plasma was taken for LC-MS analysis.

[10] = biological target: T1, human CYP3A4 enzyme (Homo sapiens (Human), UniProt P08684); assay: CYP3A4 enzyme inhibitory activity (Vivid CYP3A4 Green screening kit); conditions: read-out: CYP3A4 (IC50); Vivid CYP3A4 Green screening kit
T1 sequence (P08684 whole entry): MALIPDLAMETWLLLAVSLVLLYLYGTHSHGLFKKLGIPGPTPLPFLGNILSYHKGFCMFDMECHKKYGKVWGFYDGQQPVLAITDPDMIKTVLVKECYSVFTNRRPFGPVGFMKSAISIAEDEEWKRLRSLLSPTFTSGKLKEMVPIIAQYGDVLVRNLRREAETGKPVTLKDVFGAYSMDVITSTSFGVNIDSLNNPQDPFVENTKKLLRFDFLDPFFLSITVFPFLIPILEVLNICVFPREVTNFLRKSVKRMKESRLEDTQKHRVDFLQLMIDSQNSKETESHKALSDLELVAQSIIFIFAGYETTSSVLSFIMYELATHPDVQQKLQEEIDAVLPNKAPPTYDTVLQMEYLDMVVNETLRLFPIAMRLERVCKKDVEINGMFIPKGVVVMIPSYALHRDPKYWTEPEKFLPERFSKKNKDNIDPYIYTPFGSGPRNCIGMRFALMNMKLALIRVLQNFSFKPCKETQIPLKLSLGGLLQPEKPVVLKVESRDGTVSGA
Procedure: (§3) The inhibitory activity of compounds on human CYP3A4 enzyme was detected using a VIVID™ CYP3A4 GREEN SCRNING KIT reagent kit. The Vivid™ CYP450 screening kit includes a Vivid™ substrate, Vivid™ fluorescence standard, reaction buffer, Vivid™ regeneration system, NADP+ and CYP450 BACULOSOMES™ Plus reagent. Operations were performed following the instructions, and a blank control group was set up without adding any compounds.
(§4) The IC50 value of the compounds inhibiting human CYP3A4 enzyme was calculated using Graphpad Prism 7.00 software through the formula Y=100/(1+10^((Log IC50−X)*HillSlope)).

[11] = in vivo; conditions: Sprague-Dawley, rat, po, 10 mg/kg
Procedure: as §1

[12] = biological target: T1, human CYP3A4 enzyme
Procedure: as §3, §4

[13] = beagle, dog, in vivo, 5 mg/kg
Procedure: as §2

Compound: COc1ccc(CN2CCN(C3CC4(CCN(c5cc(Oc6cnc7[nH]ccc7c6)c(C(=O)NS(=O)(=O)c6ccc(NC[C@H]7CC[C@](C)(O)CC7)c([N+](=O)[O-])c6)cc5F)CC4)C3)[C@H](c3ccccc3C(C)C)C2)cc1 [compound 234]
- IC50 ([1]; values in nM): > 500 nM
- AUC [2]: 5630 ng·h/mL
- IC50 ([3]; Homo sapiens, RS4-11, 72 h): < 0.5 nM
- IC50 [4]: > 5000 nM
- IC50 [5]: < 10 nM
- T/C % ([6]; 5 mg/kg by gavage): 1.26%
- IC50 [7]: < 10 nM
- IC50 [8]: < 10 nM
- DNAUC [9]: 9103 AUC (h*ng/mL)/dose (mg/kg)
- IC50 [10]: > 20000 nM

- AUC [11]: 3330 ng·h/mL
- IC50 [12]: > 20000 nM
- DNAUC [13]: 13685 AUC (h*ng/mL)/dose (mg/kg)
Compound: COc1ccc(CN2CCN(C3CC4(CCN(c5cc(Oc6cnc7[nH]ccc7c6)c(C(=O)NS(=O)(=O)c6ccc(NCC7(F)CCOCC7)c([N+](=O)[O-])c6)cc5F)CC4)C3)[C@H](c3ccccc3C(C)C)C2)cc1 [compound 152, (R)-2-((1H-pyrrolo[2,3-b]pyrid-5-yl)oxy)-5-fluoro-N-((4-(((4-fluorotetrahydro-2H-pyran-4-yl)methyl)amino)-3-nitrophenyl)sulfonyl)-4-(2-(2-(2-isopropylphenyl)-4-(4-methoxybenzyl)piperazin-1-yl)-7-azaspiro[3.5]non-7-yl)benzamide]

Compound: COc1ccc(CN2CCN(C3CC4(CCN(c5ccc(C(=O)NS(=O)(=O)c6cc([N+](=O)[O-])c(NCC7(F)CCOCC7)c7[nH]cnc67)c(Oc6cnc7[nH]ccc7c6)c5)CC4)C3)[C@H](c3ccccc3C(C)C)C2)cc1 [compound 261, (R)-2-((1H-pyrrolo[2,3-b]pyrid-5-yl)oxy)-N-((7-(((4-fluorotetrahydro-2H-pyran-4-yl)methyl)amino)-6-nitro-1H-benzo[d]imidazol-4-yl)sulfonyl)-4-(2-(2-(2-isopropylphenyl)-4-(4-methoxybenzyl)piperazin-1-yl)-7-azaspiro[3.5]non-7-yl)benzamide]
- AUC [2]: 1210 ng·h/mL
- IC50 ([3]; Homo sapiens, RS4-11, 72 h): < 0.5 nM
- IC50 [5]: < 10 nM
- T/C % ([6]; 15 mg/kg by gavage): 5.35%
- IC50 [7]: < 10 nM
- IC50 [8]: < 10 nM
- IC50 [10]: > 20000 nM

Compound: COc1ccc(CN2CCN(C3CC4(CCN(c5cc(Oc6cnc7[nH]ccc7c6)c(C(=O)NS(=O)(=O)c6ccc(NC[C@H]7CC[C@](C)(O)CC7)c([N+](=O)[O-])c6)cn5)CC4)C3)[C@H](c3ccccc3C(C)C)C2)cc1 [compound 256, 4-((1H-pyrrolo[2,3-b]pyrid-5-yl)oxy)-N-((4-((((1r, 4r)-4-hydroxy-4-methylcyclohexyl)methyl)amino)-3-nitrophenyl)sulfonyl)-6-(2-((R)-2-(2-isopropylphenyl)-4-(4-methoxybenzyl)piperazin-1-yl)-7-azaspiro[3.5]non-7-yl) nicotinamide]
- AUC [2]: 1800 ng·h/mL
- IC50 ([3]; Homo sapiens, RS4-11, 72 h): < 0.5 nM
- IC50 [5]: < 10 nM
- IC50 [7]: < 10 nM
- IC50 [8]: < 10 nM
- IC50 [10]: > 20000 nM

Compound: COc1ccc(CN2CCN(C3CC4(CCN(c5cc(Oc6cnc7[nH]ccc7c6)c(C(=O)NS(=O)(=O)c6cc([N+](=O)[O-])c(NC[C@H]7CC[C@](C)(O)CC7)c7[nH]cnc67)cn5)CC4)C3)[C@H](c3ccccc3C(C)C)C2)cc1 [compound 266, 4-((1H-pyrrolo[2,3-b]pyrid-5-yl)oxy)-N-((7-((((1r,4r)-4-hydroxy-4-methylcyclohexyl)methyl)amino)-6-nitro-1H-benzo[d]imidazol-4-yl)sulfonyl)-6-(2-((R)-2-(2-isopropylphenyl)-4-(4-methoxybenzyl)piperazin-1-yl)-7-azaspiro[3.5]non-7-yl) nicotinamide]
- IC50 ([3]; Homo sapiens, RS4-11, 72 h): < 0.5 nM
- IC50 [5]: < 10 nM
- T/C % ([6]; 5 mg/kg by gavage): 15.38%
- IC50 [7]: < 10 nM
- IC50 [8]: < 10 nM
- IC50 [10]: > 20000 nM

- IC50 ([1]; values given in μM): > 1000 nM
- IC50 [3]: < 0.5 nM
- IC50 [5]: < 10 nM
- IC50 [7]: < 10 nM
- IC50 [8]: < 10 nM
Compound: (R)-2-((1H-pyrrolo[2,3-b]pyrid-5-yl)oxy)-5-fluoro-N-((4-(((4-fluorotetrahydro-2H-pyran-4-yl)methyl)amino)-3-nitrophenyl)sulfonyl)-4-(2-(2-(2-isopropylphenyl)-4-(4-methoxybenzyl)piperazin-1-yl)-7-azaspiro[3.5]non-7-yl)benzamide [compound 152]
- IC50 [4]: > 5000 nM
- T/C % ([6]; 5 mg/kg by gavage): 0.35%

Compound: CC(C)c1ccccc1[C@@H]1CN(Cc2cnn(C)c2)CCN1C1CC2(CCN(c3cc(Oc4cnc5[nH]ccc5c4)c(C(=O)NS(=O)(=O)c4ccc(NCC5(F)CCOCC5)c([N+](=O)[O-])c4)cc3F)CC2)C1 [compound 209, (R)-2-((1H-pyrrolo[2,3-b]pyrid-5-yl)oxy)-5-fluoro-N-((4-(((4-fluorotetrahydro-2H-pyran-4-yl)methyl)amino)-3-nitrophenyl)sulfonyl)-4-(2-(2-(2-isopropylphenyl)-4-((1-methyl-1H-pyrazole-4-yl)methyl)piperazin-1-yl)-7-azaspiro[3.5]non-7-yl)benzamide]
- IC50 ([1]; values given in μM): 1900 nM
- IC50 ([3]; Homo sapiens, RS4-11, 72 h): < 0.5 nM
- IC50 [4]: > 5000 nM
- IC50 [5]: < 10 nM
- IC50 [7]: < 10 nM
- IC50 [8]: < 10 nM
- IC50 [10]: > 20000 nM
